The test system of one experiment is L. bulgaricus. Briefly: Intervention study: acidification of L. bulgaricus mono-culture in reconstituted skim milk. Format: cell-based, Lactobacillus delbrueckii subsp. bulgaricus. To be noted: 37° C., 19 h. On the procedure: (§1) Cultures of S. thermophilus, L. bulgaricus and a mixed culture were prepared in 0.8 volume reconstituted skim milk with 0.2 volume of a solution with compounds: Na-pyruvate (1.82 mM), Na-formate (1.47 mM), folic acid (1 mM), nucleobases (10 mg/L each) (all representing purine and pyrimidine metabolism), Tween-20 (105.9 μM) (as a supply of lauric acid), Tween-80 (110 mg/L) (as a supply of oleic acid). Here after these compounds are referred to as ‘interaction compounds’. The LCFAs oleic acid and lauric acid are poorly soluble and therefore we used Tween-20 and Tween-80. The effect of each of all interaction compounds on growth and acidification was tested in a single addition and a single omission strategy. Paired comparisons were made of a single compound versus nothing added (neg. control), and of all compounds minus one added versus all (pos. control). Acidification of quadruplicate cultures of 250 μL, was measured at 37° C. for 19 h in hydroplates (PreSens—Precision Sensing GmbH, Germany) where after CFU counts were determined using a rapid miniplating method (36). Significant differences in acidification were determined by comparing the maximal acidification rate using a two-tailed Students t-test (p=0.05). Similarly, significant differences were calculated between the final pH values and between the colony-forming units. A higher cell count, lower final pH, higher acidification rate and a shorter time to reach this rate are considered stimulatory effect of the intervention compared to the control.

Another experiment concerns S. thermophilus. Description: Intervention study: acidification and growth of S. thermophilus mono-culture in reconstituted skim milk. The following applies: for Acidification by S. thermophilus: mono-culture in reconstituted skim milk, 37° C., 19 h, compounds listed in decreasing order of stimulation: formic acid, pyruvic acid, folic acid, Tween-20; for Growth of S. thermophilus in monoculture: in the absence of Lactobacillus bulgaricus. Format: cell-based, Streptococcus thermophilus. The method, then: as §1

The test system of experiment [1] is pflA (pyruvate formate lyase gene). The following applies: mixed culture supplemented with formic acid. The source says: (§2) Microarrays were spotted on the Agilent 8x 15K platform (Agilent Technologies, Santa Clara, Calif., USA) with a custom probe design (AMADID 015342) comprising the sequences of both S. thermophilus CNRZ1066 (released by NCBI, genbank accession no. NC 006449) and L. bulgaricus ATCC BAA-365 (released by JGI, genbank accession no. NC 008529). The probes were designed with the objective to minimize cross-hybridization: the probes were species-specific, i.e. all probes were designed as 60-mers with a target score of 100% to the target gene, allowing no binding of cDNA that is 1 base different (mismatch) if the correct hybridization temperature (65° C.) and washing temperature (37° C.) are used. In total there are 5438 probes representing 1899 genes of S. thermophilus and 4028 spots representing 1709 genes of L. bulgaricus. Most genes are represented by 3 probes or more. Only 55 genes in S. thermophilus and 77 in L. bulgaricus are represented by one probe and only 5 genes of S. thermophilus and 31 genes of L. bulgaricus are lacking. The selectivity of strain specific gene detection was tested by a series of transcriptome profiling experiments of samples from MRS-grown mono-cultures of both strains. […] They were excluded from further analysis.
(§3) The high protein content of milk and the polysaccharide production by the grown microorganisms make cell harvesting problematic. Furthermore, sampling and quenching need to be carried out rapidly in order to prevent the introduction of technical errors in a transcriptomics experiment. Several procedures have been developed to “clear” the milk to enable cell harvest by centrifugation without the contamination with milk solids. However, milk cleaning procedures are time consuming and require drastic changes in pH and the addition of large quantities of sodium citrate.

Experiment [2] deals with pfl (pyruvate formate lyase gene). To be noted: mixed culture supplemented with formic acid.
Source text: as §2, §3

The test system of experiment [3] is genes involved in biosynthesis of purines and folic acid cycling. The following applies: formic acid supplied, both species.
Source text: as §2, §3

The test system of experiment [4] is mixed culture of S. thermophilus and L. bulgaricus. Description: Intervention study: acidification of mixed culture in reconstituted skim milk. To be noted: 37° C., 19 h, stimulatory effects less than with the mono-cultures. Format: cell-based. The method, then: as §1, with “A higher cell count, lower final pH, higher acidification rate and a shorter time to reach this rate are considered stimulatory effect of the intervention compared to the control.” left out

Where two headings read alike, the source gives them in different places.

Turning to `Nc1nc2ncc(CNc3ccc(C(=O)N[C@@H](CCC(=O)O)C(=O)O)cc3)nc2c(=O)[nH]1` [folic acid], the L. bulgaricus acidification entry in the experiment with L. bulgaricus was “small stimulatory effect”. In addition, in the experiment on S. thermophilus, the “Acidification by S. thermophilus” value is “stimulated” and the “Growth of S. thermophilus in monoculture” value was “stimulate growth”.
As for `O=CO` [formic acid], the L. bulgaricus acidification entry in the experiment with L. bulgaricus is “stimulated the most”. For the same molecule, the “Expression of pflA down-regulated when formic acid was supplied” value in experiment [1] worked out at 5.7 fold. In addition, the “Expression of pfl down-regulated when formic acid was supplied” value in experiment [2] amounted to 3.8 fold. Also, the entries for the “Expression of genes involved in biosynthesis of purines and folic acid cycling” value in experiment [3] (early (second) exponential phase) and in experiment [3] (mid exponential phase) were “lower” and “higher”, respectively. In the experiment with S. thermophilus, the “Acidification by S. thermophilus” value is “stimulated”. Further, the “Acidification of the mixed cultures” value in experiment [4] is listed as “still stimulated”.
For the molecule `CC(=O)C(=O)O` [pyruvic acid], the L. bulgaricus acidification result in the experiment with L. bulgaricus is reported as “small stimulatory effect”. Moreover, in the experiment on S. thermophilus, the “Acidification by S. thermophilus” value is listed as “stimulated” and the “Growth of S. thermophilus in monoculture” value is “stimulate growth”. Further, in experiment [4], the “Acidification of the mixed cultures” value is “still stimulated”.
Regarding Tween-20, in the experiment on L. bulgaricus, the L. bulgaricus acidification result is “small stimulatory effect”. Besides, in the experiment on S. thermophilus, the “Acidification by S. thermophilus” value is reported as “stimulated” and the “Growth of S. thermophilus in monoculture” value is “stimulate growth”.
Tween-80: the L. bulgaricus acidification entry in the experiment with L. bulgaricus is on record as “small stimulatory effect”.

The record behind these values is patent publication US20120276245A1, “METHOD FOR IMPROVED FERMENTATION” (STICHTING TOP INSTITUTE FOOD AND NUTRITION, priority 2009, published 2012).
